Source: patent US12441733B2, “Substituted 2,4-dioxotetrahydropyrimidines as intermediates in the synthesis of bruton's tyrosine kinase inhibitors” (Novartis AG, priority 2018, dated 2025)

Target: T1, BTK(C481S)-GFP (Homo sapiens, UniProt Q06187+Q96SW2, C481S)
T1 construct: CHYSEL (cis-acting hydrolase element, 2A) remnant after GFP; mCherry is split off as a separate protein (C); expressed in transfected cells; host or cells: TMD8 cells, lentiviral transduction with pLenti6-BTK(C481S)-GFP-CHYSEL-mCherry
Test: BTK(C481S)-GFP protein abundance flow cytometry assay in TMD8 cells
Assay type: cell-based
Conditions: TMD8 cells expressing BTK(C481S)-GFP; for DC50: GFP signal by flow cytometry; for BTK (C481S) Amax: % protein remaining at maximum degradation
Procedure: Compounds of the invention were tested in the following cellular assays. The terms in Table 2 are defined as follows: DC50 refers to the concentration at which 50% maximal degradation was observed; deg Amax is the extent of degradation and the value refers to the % protein remaining at the concentration at which maximum degradation is seen; ProI GI50 refers to the proliferation data and defines the concentration at which 50% growth inhibition was observed compared to the vehicle treated control at the end of the incubation time. TMD8 cells are BTK dependent and OCI-LY3 cells are BTK independent.
Btk(C481S)-GFP Protein Abundance Flow Cytometry Assay in TMD8 Cells:
Degradation of BTK(C481S) was measured in TMD8 cells expressing BTK(C481S)-GFP and mCherry from a stably integrated second generation bicistronic BTK(C481S)-GFP-CHYSEL-mCherry construct. Reduction of the […] measured by flow cytometry served as readout for BTK(C481S) degradation after degrader treatment.
Cloning of the pLenti6-BTK(C481)-GFP-CHYSEL-mCherry Sensor Vectors
The BTK(C481 S) protein abundance sensor is based on a second generation bicistronic construct, where the 2 reading frames BTK(C481S) and mCherry control are separated by a cis-acting hydrolase element (see: Lo et al., 2015 Cell Reports 13, 2634), replacing the Ires from the first generation vector described before.
The bicistronic BTK(C481S)-GFP-CHYSEL-mCherry construct is based on a pLenti6-DEST vector backbone where a GFP-CHYSEL-mCherry cassette was synthesized and inserted downstream of the DEST cassette by Gibson assembly resulting in the new gateway compatible vector pLenti6-DEST-GFP-CHYSEL-mCherry to allow Gateway cloning with pENTR221-BTK(C48S)(STOP-Leu) to obtain the final sensor construct pLenti6-BTK(C481S)-GFP-CHYSEL-mCherry. The pENTR221-BTK(C481S)(STOP-Leu) was generated by mutating wild-type BTK to BTK(C481S) with a mutagenesis reaction on pENTR221-BTK (STOP-Leu) with the following primers (BTK C481S Quikchange fw, gagtacatggccaatggctCcctcctgaactacctgagg (SEQ ID NO: 7); BTK C481S Quikchange REVC, cctcaggtagttcaggaggGagccattggccatgtactc (SEQ ID NO: 8)) using the QuikChange Lightning mutagenesis kit (Agilent Technologies #210518) performed according to the manufacturer's manual, resulting in pENTR221-BTK(C481S)(STOP-Leu).
Sequence of the synthesized construct (Xho1 sites are shown in bold, mCherry-ORF is shown in small letters):
Engineering of Stably Expressing TMD8 BTK(C481 S-GFP-CHYSEL-mCherry Sensor Cells
TMD8 BTK(C481S)-GFP-CHYSEL-mCherry sensor cells were generated by lentiviral vector transduction using the pLenti6-BTK(C4818)-GFP-CHYSEL-mCherry sensor construct described before. Lentiviral particles were produced in HEK293FT cells (Invitrogen R70007) by co-transfection of 500 ng pLenti6-BTK-GFP-Ires-RFP or pLenti6-IKZF3-GFP-Ires-RFP, 500 ng delta8.71 and 200 ng pVSVG diluted in 100 μl OptiMEM serum free medium (Invitrogen #11058-021) that was mixed after 5 min preincubation with 3 μl of Lipofectamine2000 (Invitrogen #11668-019) in 97 μl OptiMEM serum free medium. The mix was incubated for another 20 min at RT and then added to 1 ml of a freshly prepared suspension of HEK293FT cells in a well of a 6-well plate (concentration 1.2×10^6 cells/ml). 1 day after transfection, the medium was replaced with 1.5 ml of complete growth medium (DMEM high Glucose+10% FCS+1% L-Glutamine+1% NEAA+1% NaPyr.). 48 h post transfection supernatant containing viral transducing particles was collected and frozen at −80° C.
Two days before transduction with viral particles 1×10^5 HEK293A cells (Invitrogen R7057) were seeded in 2 ml growth medium in a well of a 6-well plate. Infection was performed with 90 μl of collected supernatant containing viral transducing particles in 1 ml medium including 8 μg/ml polybrene. 24 h post infection, stably transfected cells were selected with blasticidin at a concentration of 8 μg/ml.

T1 sequence (Q06187 whole entry C481S): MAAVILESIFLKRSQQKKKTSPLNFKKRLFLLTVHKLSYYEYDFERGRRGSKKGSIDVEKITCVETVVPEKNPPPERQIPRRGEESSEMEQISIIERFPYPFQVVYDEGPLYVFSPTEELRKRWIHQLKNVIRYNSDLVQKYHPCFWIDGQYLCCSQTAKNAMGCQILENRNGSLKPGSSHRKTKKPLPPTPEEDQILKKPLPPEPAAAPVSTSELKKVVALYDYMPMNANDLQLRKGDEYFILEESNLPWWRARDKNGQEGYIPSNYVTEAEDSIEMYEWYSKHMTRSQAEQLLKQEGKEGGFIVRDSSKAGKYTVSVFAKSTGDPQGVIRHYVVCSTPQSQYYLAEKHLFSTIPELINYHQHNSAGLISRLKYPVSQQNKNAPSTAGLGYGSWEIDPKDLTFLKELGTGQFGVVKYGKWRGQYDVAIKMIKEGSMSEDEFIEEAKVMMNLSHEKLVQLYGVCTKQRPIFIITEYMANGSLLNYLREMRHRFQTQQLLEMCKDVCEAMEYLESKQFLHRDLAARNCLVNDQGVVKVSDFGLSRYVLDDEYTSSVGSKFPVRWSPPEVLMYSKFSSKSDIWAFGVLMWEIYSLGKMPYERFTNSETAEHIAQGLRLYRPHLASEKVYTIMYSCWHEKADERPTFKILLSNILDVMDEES
T1 sequence (Q96SW2 whole entry): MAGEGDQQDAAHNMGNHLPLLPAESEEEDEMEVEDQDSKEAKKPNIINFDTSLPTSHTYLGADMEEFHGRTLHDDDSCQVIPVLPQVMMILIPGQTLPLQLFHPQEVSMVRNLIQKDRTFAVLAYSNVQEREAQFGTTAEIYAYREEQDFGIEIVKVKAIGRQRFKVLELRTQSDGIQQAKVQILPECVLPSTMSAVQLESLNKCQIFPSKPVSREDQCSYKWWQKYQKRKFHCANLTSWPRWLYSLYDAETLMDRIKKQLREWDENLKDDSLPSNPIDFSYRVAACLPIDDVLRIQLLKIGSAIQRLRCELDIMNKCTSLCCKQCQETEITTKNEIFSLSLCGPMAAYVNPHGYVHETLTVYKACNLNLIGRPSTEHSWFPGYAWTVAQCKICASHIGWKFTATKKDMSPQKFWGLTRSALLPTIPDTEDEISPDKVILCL
T1 sequence (Q16531 whole entry partner): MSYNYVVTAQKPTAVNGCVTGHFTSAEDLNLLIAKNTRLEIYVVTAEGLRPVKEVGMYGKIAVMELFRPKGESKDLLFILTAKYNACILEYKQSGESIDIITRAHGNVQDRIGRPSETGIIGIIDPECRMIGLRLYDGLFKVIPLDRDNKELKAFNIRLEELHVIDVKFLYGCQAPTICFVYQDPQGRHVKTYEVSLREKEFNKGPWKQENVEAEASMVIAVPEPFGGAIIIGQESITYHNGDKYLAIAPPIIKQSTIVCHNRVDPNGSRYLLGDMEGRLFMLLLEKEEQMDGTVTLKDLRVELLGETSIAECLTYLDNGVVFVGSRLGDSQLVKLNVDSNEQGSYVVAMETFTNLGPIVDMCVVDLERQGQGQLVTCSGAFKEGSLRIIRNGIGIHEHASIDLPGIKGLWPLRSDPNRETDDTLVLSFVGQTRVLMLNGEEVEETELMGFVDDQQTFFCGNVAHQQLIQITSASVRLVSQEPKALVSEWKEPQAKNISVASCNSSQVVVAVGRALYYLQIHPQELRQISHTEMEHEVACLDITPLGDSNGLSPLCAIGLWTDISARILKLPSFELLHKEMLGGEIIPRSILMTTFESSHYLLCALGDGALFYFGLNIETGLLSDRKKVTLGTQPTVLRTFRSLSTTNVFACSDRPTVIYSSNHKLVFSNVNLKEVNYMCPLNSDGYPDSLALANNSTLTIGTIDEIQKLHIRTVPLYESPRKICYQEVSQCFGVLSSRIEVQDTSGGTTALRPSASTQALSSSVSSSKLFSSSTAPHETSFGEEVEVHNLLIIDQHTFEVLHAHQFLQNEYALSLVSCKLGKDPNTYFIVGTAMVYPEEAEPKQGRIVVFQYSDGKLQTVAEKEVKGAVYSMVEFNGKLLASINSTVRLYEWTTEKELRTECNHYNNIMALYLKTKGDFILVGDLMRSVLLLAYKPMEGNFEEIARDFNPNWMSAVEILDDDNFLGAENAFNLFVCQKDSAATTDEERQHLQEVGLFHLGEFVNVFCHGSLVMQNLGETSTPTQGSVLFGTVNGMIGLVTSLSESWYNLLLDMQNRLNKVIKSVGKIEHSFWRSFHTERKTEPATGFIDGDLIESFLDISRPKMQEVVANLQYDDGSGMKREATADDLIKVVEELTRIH

| Compound | DC50 [nM] | BTK (C481S) Amax [%] |
| --- | --- | --- |
| COc1ccc(C(=O)N2CCC3(CCN(Cc4ccc(-c5cc6c(-c7cc(F)cc(NC(=O)c8ccc(C(C)(C)O)cc8F)c7C)ncnc6[nH]5)cc4)CC3)CC2)cc1N1CCC(=O)NC1=O [Compound 9, N-(3-(6-(4-((9-(3-(2,4-Dioxotetrahydropyrimidin-1(2H)-yl)-4-methoxybenzoyl)-3,9-diazaspiro[5.5]undecan-3-yl)methyl)phenyl)-7H-pyrrolo[2.3-d]pyrimidin-4-yl)-5-fluoro-2-methylphenyl)-2-fluoro-4-(2-hydroxypropan-2-yl)benzamide] | 1.92 | 4.5 |
| Cc1ccc(C(=O)N2CCC3(CCN(CCc4ccc(-c5cc6c(-c7cc(F)cc(NC(=O)c8ccc(C(C)(C)O)cc8F)c7C)ncnc6[nH]5)cc4)CC3)CC2)cc1N1CCC(=O)NC1=O [Compound 5, N-(3-(6-(4-(2-(9-(3-(2,4-Dioxotetrahydropyrimidin-1(2H)-yl)-4-methylbenzoyl)-3,9-diazaspiro[5.5]undecan-3-yl)ethyl)phenyl)-7H-pyrrolo[2,3-d]pyrimidin-4-yl)-5-fluoro-2-methylphenyl)-2-fluoro-4-(2-hydroxypropan-2-yl)benzamide] | 0.57 | 2.5 |
| Cc1c(NC(=O)c2ccc(C(C)(C)O)cc2F)cc(F)cc1-c1ncnc2[nH]c(-c3ccc(COC4CCN(CCC5CCN(C(=O)c6ccc(F)c(N7CCC(=O)NC7=O)c6)CC5)CC4)cc3)cc12 [Compound 6, N-(3-(6-(4-(((1-(2(1-(3-(2,4-dioxotetrahydropyrimidin-1(2H)-yl)-4-fluorobenzoyl)piperidin-4-yl)ethyl)piperidin-4-yl)oxyl)methyl)phenyl)-7H-pyrrolo[2,3-d]pyrimidin-4-yl)-5-fluoro-2-methylphenyl)-2-fluoro-4-(2-hydroxypropan-2-yl)benzamide] | 0.72 | 2.1 |
| Cc1c(NC(=O)c2ccc(C(C)(C)O)cc2F)cc(F)cc1-c1ncnc2[nH]c(-c3ccc(CN4CCC5(CC4)CCN(C(=O)c4ccc(F)c(N6CCC(=O)NC6=O)c4)CC5)cc3)cc12 [Compound 14, N-(3-(6-(4-((9-(3-(2,4-Dioxotetrahydropyrimidin-1(2H)-yl)-4-fluorobenzoyl)-3,9-diazaspiro[5.5]undecan-3-yl)methyl)phenyl)-7H-pyrrolo[2.3-d]pyrimidin-4-yl)-5-fluoro-2-methylphenyl)-2-fluoro-4-(2-hydroxypropan-2-yl)benzamide] | 1.52 | 2.8 |
| COc1ccc(C(=O)N2CCC(OC3CCN(Cc4ccc(-c5cc6c(-c7cc(F)cc(NC(=O)c8ccc(C(C)(C)O)cc8F)c7C)ncnc6[nH]5)cc4)CC3)CC2)cc1N1CCC(=O)NC1=O [Compound 8, N-(3-(6-(4-((4-((1-(3-(2,4-dioxotetrahydropyrimidin-1(2H)-yl)-4-methoxybenzoyl)piperidin-4-yl)oxyl)piperidin-1-yl)methyl)phenyl)-7H-pyrrolo[2,3-d]pyrimidin-4-yl)-5-fluoro-2-methylphenyl)-2-fluoro-4-(2-hydroxypropan-2-yl)benzamide] | 2.08 | 2.7 |
| COc1ccc(C(=O)N2CCC(CN3CCC(Oc4ccc(-c5cc6c(-c7cc(F)cc(NC(=O)c8ccc(C(C)(C)O)cc8F)c7C)ncnc6[nH]5)cc4)CC3)CC2)cc1N1CCC(=O)NC1=O [Compound 19, N-(3-(6-(4-((1-((1-(3-(2,4-Dioxotetrahydropyrimidin-1(2H)-yl)-4-methoxybenzoyl)piperidin-4-yl)methyl)piperidin-4-yl)oxyl)phenyl)-7H-pyrrolo[2,3-d]pyrimidin-4-yl)-5-fluoro-2-methylphenyl)-2-fluoro-4-(2-hydroxypropan-2-yl)benzamide] | 0.62 | 2.7 |
| Cc1c(NC(=O)c2ccc(C(C)(C)O)cc2F)cc(F)cc1-c1ncnc2[nH]c(-c3ccc(CCN4CCC5(CC4)CCN(C(=O)c4cccc(N6CCC(=O)NC6=O)c4)CC5)cc3)cc12 [Compound 12, N-(3-(6-(4-(2-(9-(3-(2,4-Dioxotetrahydropyrimidin-1(2H)-yl)benzoyl)-3,9-diazaspiro[5,5]undecan-3-yl)ethyl)phenyl)-7H-pyrrolo[2,3-d]pyrimidin-4-yl)-5-fluoro-2-methylphenyl)-2-fluoro-4-(2-hydroxypropan-2-yl)benzamide] | 1.58 | 2.9 |

Other lines, results leading:

| DC50 [nM] | BTK (C481S) Amax [%] | Compound |
| --- | --- | --- |
| 0.68 | 2.4 | COc1ccc(C(=O)N2CCC3(CC2)CCN(C(C)(C)Cc2ccc(-c4cc5c(-c6cc(F)cc(NC(=O)c7ccc(C(C)(C)O)cc7F)c6C)ncnc5[nH]4)cc2)CC3)cc1N1CCC(=O)NC1=O [Compound 20, N-(3-(6-(4-(2-(9-(3-(2,4-Dioxotetrahydropyrimidin-1(2H)-yl)-4-methoxybenzoyl)-3,9-diazaspiro[5.5]undecan-3-yl)-2-methylpropyl)phenyl)-7H-pyrrolo[2,3-d]pyrimidin-4-yl)-5-fluoro-2-methylphenyl)-2-fluoro-4-(2-hydroxypropan-2-yl)benzamide] |
| 2.47 | 4.5 | COc1ccc(C(=O)N2CCN(C(=O)N3CCN(Cc4ccc(-c5cc6c(-c7cc(F)cc(NC(=O)c8ccc(C(C)(C)O)cc8F)c7C)ncnc6[nH]5)cc4)CC3)CC2)cc1N1CCC(=O)NC1=O [Compound 22, N-(3-(6-(4-((4-(4-(3-(2,4-Dioxotetrahydropyrimidin-1(2H)-yl)-4-methoxybenzoyl)piperazine-1-carbonyl)piperazin-1-yl)methyl)phenyl)-7H-pyrrolo[2,3-d]pyrimidin-4-yl)-5-fluoro-2-methylphenyl)-2-fluoro-4-(2-hydroxypropan-2-yl)benzamide] |
| 1.21 | 3.0 | COc1ccc(C(=O)N2CCC3(CCN(CCc4ccc(-c5cc6c(-c7cc(F)cc(NC(=O)c8ccc(C(C)(C)O)cc8F)c7C)ncnc6[nH]5)cc4)CC3)CC2)cc1N1CCC(=O)NC1=O [Compound 31, N-(3-(6-(4-(2-(9-(3-(2,4-Dioxotetrahydropyrimidin-1(2H)-yl)-4-methoxybenzoyl)-3,9-diazaspiro[5.5]undecan-3-yl)ethyl)phenyl)-7H-pyrrolo[2,3-d]pyrimidin-4-yl)-5-fluoro-2-methylphenyl)-2-fluoro-4-(2-hydroxypropan-2-yl)benzamide] |
| 3.03 | 2.9 | COc1ccc(C(=O)N2CCN(CCCCNCc3ccc(-c4cc5c(-c6cc(F)cc(NC(=O)c7ccc(C(C)(C)O)cc7F)c6C)ncnc5[nH]4)cc3)CC2)cc1N1CCC(=O)NC1=O [Compound 40, N-(3-(6-(4-(((4-(4-(3-(2,4-dioxotetrahydropyrimidin-1(2H)-yl)-4-methoxybenzoyl)piperazin-1-yl)butyl)amino)methyl)phenyl)-7H-pyrrolo[2,3-d]pyrimidin-4-yl)-5-fluoro-2-methylphenyl)-2-fluoro-4-(2-hydroxypropan-2-yl)benzamide] |
